# Patent publication US11999737B2, “Kinase inhibitors and related methods of use” (Duke University, priority 2014, dated 2024)
# Entries after “also recorded” stand apart in the source; their conditions may differ.
# Tests used:
# LC20 phosphorylation = test system: LC20 phosphorylation; set-up: species or system rat
# DYRK2 = molecular target: T1, DYRK2 (Homo sapiens, UniProt Q92630); assay: 33P-ATP filter-binding kinase assay
# T1 sequence (Q92630 1-601): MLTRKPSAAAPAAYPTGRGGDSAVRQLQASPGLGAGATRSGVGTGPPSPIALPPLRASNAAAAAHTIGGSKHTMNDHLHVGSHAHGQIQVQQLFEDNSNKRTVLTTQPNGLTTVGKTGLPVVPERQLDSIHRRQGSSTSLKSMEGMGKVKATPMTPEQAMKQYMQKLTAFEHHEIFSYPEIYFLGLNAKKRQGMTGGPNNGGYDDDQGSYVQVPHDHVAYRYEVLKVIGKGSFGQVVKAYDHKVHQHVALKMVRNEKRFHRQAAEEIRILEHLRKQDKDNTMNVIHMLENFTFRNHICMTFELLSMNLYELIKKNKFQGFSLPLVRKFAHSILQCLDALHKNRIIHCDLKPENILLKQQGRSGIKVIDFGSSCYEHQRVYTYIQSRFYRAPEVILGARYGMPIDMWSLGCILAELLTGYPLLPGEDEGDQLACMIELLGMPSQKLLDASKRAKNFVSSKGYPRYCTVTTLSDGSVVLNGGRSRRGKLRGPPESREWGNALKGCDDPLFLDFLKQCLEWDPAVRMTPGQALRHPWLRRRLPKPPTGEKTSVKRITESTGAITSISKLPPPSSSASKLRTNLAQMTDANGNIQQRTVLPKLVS
# Src = Src (Homo sapiens, UniProt P12931); assay: 33P-ATP filter-binding kinase assay (kinome profile); format: biochemical; settings: 10 μM HS38
# [1] = test system: spontaneous hypertensive rat (SHR); assay: HS-38 treatment of spontaneous hypertensive rats, vessel properties; format: in vivo
# Description: The myogenic response and ZIP-dependency of pressure autoregulation were assessed. Two age groups, 8-10 weeks and 18-20 weeks, were used to permit identification of age-dependent alterations in myogenic responses associated with the onset of diabetes/hypertension and after the diseases had become fully established. Two rat models were used, spontaneous hypertensive rat(SHR) model, and Goto-Kakizaki (GK) rat model of type 2 diabetes (T2D). […] HS-38 treatment attenuated myogenic hypercontractility in the cremaster artery of spontaneously-hypertensive rats (SHR; FIG. 33; WKY=Wistar Kyoto rat, control).
# No effect of HS38 was observed on the ratio of wall thickness/vessel diameter in the SHR mesenteric artery.
# [2] = test system: human cerebral arterioles; assay: Pressure myography of isolated human cerebral arterioles, myogenic tone; settings: HS-38 10 μM, ex vivo
# Source text: A human cerebral artery (CA) was harvested during a tumour removal. Cerebral tissue was obtained from a person with metastatic adenocarcinoma from lung. Surface vessels of the anterior cerebral artery off the midline over the left anterior frontal lobe were dissected for analysis. […] Pressure-induced changes in arteriolar diameter (A) as well as diameter-pressure relationships (B) and arterial constriction (C) are shown. Data are from n=1 vessel. The passive diameter at 120 mmHg was ˜290 μm. Vessels of similar diameter were isolated, proteins were extracted with SDS-PAGE buffer and immunoblotted (D) for ZIPK and α-actin as a loading control.
# A human cerebral artery (CA) was harvested during a tumor removal. Cerebral tissue was obtained from a person with metastatic adenocarcinoma from lung. Surface vessels of the anterior cerebral artery off the midline over the left anterior frontal lobe were dissected for analysis. […]
# Pressure-induced changes in arteriole diameter (A) as well as diameter-pressure relationships (B) and arterial constriction (C) are shown. […] Bands were quantified with a LAS4000 gel analyzer.
# Tissues were obtained from patients undergoing resections for treatment for epilepsy or tumors. Surface vessels of ˜200 μm diameter were analyzed by pressure myography and western immunoblotting.
# RLC20 phosphorylation = assay: Western blot of RLC20 phosphorylation in Ca2+-sensitized rabbit ileum; settings: HS38 50 μM
# Description: (§1) To examine the effect of ZIPK inhibition on sensitized force, muscle strips were stimulated with an intermediate calcium concentration solution (pCa 6.5). Once force reached a plateau, strips were Ca^2+-sensitized by the addition of the agonist carbachol (5 μM). Up to 2 μM of GTP was added together with the sensitizing agonist to compensate for possible loss of GTP during permeabilization. At the plateau of Ca-sensitized force (5-10 min upon stimulation), the ZIPK inhibitor, HS38 (50 μM) or diluent (0.1% DMSO) was added and the force relaxation time course was recorded. Tissue samples were frozen 20 min after the addition of HS38 for biochemical assays of RLC20 and MYPT1 phosphorylation.
# (§2) MYPT1 and RLC20 phosphorylation: To examine the phosphorylation of MYPT1 and RLC20, rabbit ileum SM strips were treated as described above and previously reported. (Gong et al. (1995), J. Physiol.-London 486, 113-122; Kitazawa et al. (1989) J. Biol. Chem. 264, 5339-5342; Kobayashi et al. (1991) Am. J. Physiol. 260, C364-C370), Following the stimulation protocols, muscle strips were immediately frozen by immersion in −80° C. acetone with trichloroacetic acid (10% w/v) and stored at −80° C. […] Phosphorylation of MYPT1 Thr696 and of RLC20 was determined by SDS-PAGE and Western blotting. […]
# [3] = test system: MYPT1 Thr696 phosphorylation; assay: Western blot of MYPT1 Thr696 phosphorylation in Ca2+-sensitized rabbit ileum; settings: HS38 50 μM
# Description: as §1, §2
# Src, sequence (P12931 whole entry): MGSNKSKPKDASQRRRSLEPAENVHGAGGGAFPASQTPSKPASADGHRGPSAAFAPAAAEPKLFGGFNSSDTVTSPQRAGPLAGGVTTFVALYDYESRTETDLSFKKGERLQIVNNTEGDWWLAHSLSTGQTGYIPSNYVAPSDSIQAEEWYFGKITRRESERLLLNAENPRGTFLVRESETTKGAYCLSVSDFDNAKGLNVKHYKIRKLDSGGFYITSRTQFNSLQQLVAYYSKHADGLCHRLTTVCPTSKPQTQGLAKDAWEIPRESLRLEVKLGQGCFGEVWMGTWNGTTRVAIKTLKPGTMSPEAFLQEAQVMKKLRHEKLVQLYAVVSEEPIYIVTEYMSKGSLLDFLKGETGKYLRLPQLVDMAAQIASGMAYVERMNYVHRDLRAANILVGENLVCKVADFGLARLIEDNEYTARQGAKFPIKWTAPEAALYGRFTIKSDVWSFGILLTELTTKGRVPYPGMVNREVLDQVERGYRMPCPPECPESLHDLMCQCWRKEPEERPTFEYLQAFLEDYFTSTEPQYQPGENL
smiles,measurement,setting,value
CC(Sc1nc2c(cnn2-c2cccc(Cl)c2)c(=O)[nH]1)C(N)=O (centres unmarked) [HS38],LC20 mono- and diphosphorylation,LC20 phosphorylation,time-dependent attenuations
same,IC50,"DYRK2; mean ± S.D., n = 2",1800 ± 600 nM
same,activity at 10 µM,DYRK2; read-out: % Activity (10 μM HS38),21%
same,inhibition at 10 µM,Src,0%
same,circumferential strain,[1]; HS-38 treatment,increased
same,vessel narrowing seen in hypertension,[1]; HS-38 treatment,partially reversed
same,myogenic hypercontractility in the cremaster artery,"[1]; HS-38 treatment, SHR",attenuated
same,ratio of wall thickness/vessel diameter,[1]; SHR mesenteric artery,No effect
same,myogenic tone development,[2],appeared to attenuate; also recorded: suppressed
same,RLC20 phosphorylation level,RLC20 phosphorylation,significantly reduced
same,MYPT1 Thr696 phosphorylation level,[3],significantly reduced
